Assay results reported in ChEMBL document CHEMBL1129973, “HIV-1 integrase pharmacophore: discovery of inhibitors through three-dimensional database searching” (J Med Chem, 1997).

Columns and labels:
[1] = target: T1, Human immunodeficiency virus type 1 integrase (Human immunodeficiency virus 1, UniProt Q7ZJM1); experiment: Inhibitory concentration against HIV-1 integrase by strand transfer method
[2] = target: T1, Human immunodeficiency virus type 1 integrase; experiment: Inhibitory concentration to inhibit HIV-1 integrase by 3' -processing method
[3] = target: T1, Human immunodeficiency virus type 1 integrase; experiment: Inhibitory concentration to inhibit HIV-1 integrase by 3' -processing
[4] = target: T1, Human immunodeficiency virus type 1 integrase; experiment: Inhibitory concentration required to inhibit HIV-1 integrase by strand transfer method

T1 sequence (Q7ZJM1 whole entry): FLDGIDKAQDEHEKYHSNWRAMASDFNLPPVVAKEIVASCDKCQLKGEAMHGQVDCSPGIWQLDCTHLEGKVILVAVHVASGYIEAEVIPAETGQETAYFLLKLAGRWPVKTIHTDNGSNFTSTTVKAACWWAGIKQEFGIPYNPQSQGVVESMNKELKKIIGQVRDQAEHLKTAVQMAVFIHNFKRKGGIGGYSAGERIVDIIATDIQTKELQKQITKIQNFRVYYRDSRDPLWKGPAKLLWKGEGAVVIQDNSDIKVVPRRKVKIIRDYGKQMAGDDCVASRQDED

SMILES	IC50 [1] [µM]	IC50 [2] [µM]	IC50 [3] [µM]	IC50 [4] [µM]
CC1=NN(c2ccccc2)C(=O)C1/N=N/c1ccc(S(=O)(=O)Nc2nnc(C)s2)cc1 (stereo not given)	77	134		
NNS(=O)(=O)c1ccc(OCC(=O)O)cc1	8.8	8.2		
CC(=O)C1(/N=N/c2ccc(S(=O)(=O)Nc3onc(C)c3C)cc2)CCOC1=O (stereo not given)	143	193		
CC(=O)Nc1cc(S(=O)(=O)O)cc2cc(S(=O)(=O)O)cc(O)c12	0.29	0.47		
Cc1cc(NS(=O)(=O)c2ccc(N/N=C3/C(=N)C(C)C(=O)C(C)C3=O)cc2)nc(C)n1 (stereo not given)	> 200	> 200		
Cc1nnc(NS(=O)(=O)c2ccc(N/N=C3/C(=N)C(C)C(=O)C(C)C3=O)cc2)s1 (stereo not given)	> 200	> 200		
Cc1nnc(NS(=O)(=O)c2ccc(C3SC(=S)NC3=O)cc2)s1 (stereo not given)	19	24		
O=C(Nc1ccc(S(=O)(=O)Nc2ccc(/N=N/c3ccccc3)cc2)cc1)C(Sc1[nH]cnc2ncnc1-2)Sc1[nH]cnc2ncnc1-2	112	140		
CC(=O)C1(/N=N/c2ccc(S(=O)(=O)Nc3ccccn3)cc2)CCOC1=O (stereo not given)	> 200	> 200		
CC(=O)N(C(C)=O)c1nc2c(c(=O)n(C)c(=O)n2C)n1C	> 200	> 200		
Cc1cc(C)nc(NS(=O)(=O)c2ccc(NC(=O)c3cccn4c(=O)c5ccccc5nc34)cc2)n1	44.6	75.5		
Cc1ccnc(NS(=O)(=O)c2ccc(N/N=C3/C(=N)C(C)C(=O)C(C)C3=O)cc2)n1 (stereo not given)	> 200	> 200		
CCOC(=O)C(CCCCn1cnc2ncnc(Cl)c21)(NC(C)=O)C(=O)OCC	> 200	> 200		
CC(=O)Nc1ccc(S(=O)(=O)/N=N/NCC(=O)O)cc1	> 200	> 200		
CCOC(=O)C(/C=N/c1ccc(S(N)(=O)=O)cc1)C(=O)OCC	> 200	> 200		
CC1=NN(c2ccccc2)C(=O)C1/N=N/c1ccc(S(=O)(=O)Nc2ccccn2)cc1 (stereo not given)	> 200	> 200		
COc1cc(NS(=O)(=O)c2ccc(C(C)=O)cc2)nc(OC)n1	> 200	> 200		
CC1=NN(c2ccccc2)C(=O)C1/N=N/c1ccc(S(N)(=O)=O)cc1 (stereo not given)	> 200	> 200		
Cc1ccnc(NS(=O)(=O)c2ccc(NC(=O)Nc3ccc(Cl)c(C(F)(F)F)c3)cc2)n1	80	122		
CCOC(=O)COc1ccc(S(=O)(=O)c2ccc(OCC(=O)OCC)cc2)cc1	> 200	> 200		

SMILES	IC50 [1] [µM]	IC50 [2] [µM]	IC50 [3] [µM]	IC50 [4] [µM]
CS(=O)(=O)c1nc2ccc(N3C(=O)c4ccccc4C3=O)cc2s1	> 200	> 200		
Cc1cc(C)nc(NS(=O)(=O)c2ccc(CN3C(=O)c4ccccc4C3=O)cc2)n1	> 200	> 200		
CCOC(=O)N(CCCCCCNC(c1ccccc1)S(=O)(=O)O)c1ccccc1 (stereo not given)	> 200	> 200		
Cc1cc(C)nc(NS(=O)(=O)c2ccc(NC(=O)c3cccc4c(N)c5ccccc5nc34)cc2)n1	13.7	48.3		
CCC(=O)CCC1=Nc2nnc(CCCCc3nnc4n3C(=O)C(CCC(=O)CC)=N4)n2C1=O	> 200	> 200		
Cc1csc(NS(=O)(=O)c2ccc(N/N=C3/C(=N)C(C)C(=O)C(C)C3=O)cc2)c1C (stereo not given)	> 200	> 200		
NS(=O)(=O)c1ccc(NC(=O)/C=C\C(=O)O)cc1	> 200	> 200		
O=C(O)c1ccccc1/C=N/NC1=CS(=O)(=O)C=C1	> 200	> 200		
CC1=NN(c2ccccc2)C(=O)C1/N=N/c1ccc(S(=O)(=O)Nc2cc(C)nc(C)n2)cc1 (stereo not given)	> 200	> 200		
CC1=NN(c2ccccc2)C(=O)C1/N=N/c1ccc(S(=O)(=O)Nc2ncccn2)cc1 (stereo not given)	> 200	> 200		
CC1=NN(c2ccccc2)C(=O)C1/N=N/c1ccc(S(=O)(=O)Nc2nccc(C)n2)cc1 (stereo not given)	23.6	49		
Nc1nc(N)c(/N=N/c2ccc(S(=O)(=O)NC(=O)c3ccccc3)cc2)c(O)n1	96	120		
CC(=O)C1(/N=N/c2ccc(S(=O)(=O)Nc3nnc(C)s3)cc2)CCOC1=O (stereo not given)	178	244		
CC(=O)Nc1cccc2cc(S(=O)(=O)O)ccc12	14.3	27.9		
CC(=O)Nc1cc2cc(NS(=O)(=O)c3cc(C(F)(F)F)cc(C(F)(F)F)c3)ccc2oc1=O	> 200	> 200		
CC1C(=N)/C(=N/Nc2ccc(S(=O)(=O)Nc3ccccn3)cc2)C(=O)C(C)C1=O (stereo not given)	> 200	> 200		
CC1C(=N)/C(=N/Nc2ccc(S(=O)(=O)Nc3nccs3)cc2)C(=O)C(C)C1=O (stereo not given)	> 200	> 200		
NS(=O)(=O)c1ccc(NC=C2C(=O)N(c3ccccc3)N(c3ccccc3)C2=O)cc1	> 200	> 200		
NS(=O)(=O)c1ccc(NC(=O)/C=C/C(=O)O)cc1	> 200	> 200		
CC1C(=N)/C(=N/Nc2ccc(S(=O)(=O)Nc3ncccn3)cc2)C(=O)C(C)C1=O (stereo not given)	> 200	> 200		

SMILES	IC50 [1] [µM]	IC50 [2] [µM]	IC50 [3] [µM]	IC50 [4] [µM]
O=C(Nc1ccc(S(=O)(=O)Nc2ccc(/N=N/c3ccc(S(=O)(=O)Nc4nccs4)cc3)cc2)cc1)C(N1CC1)(N1CC1)N1CC1	> 200	> 200		
O=C(CNC(=O)c1cnc2ccccc2n1)NCCCNC(=O)CNC(=O)c1cnc2ccccc2n1	> 200	> 200		
Cc1ccccc1CN1C2=NCCN2C(=O)C2=C1CCN(S(=O)(=O)c1ccc(Cl)c(S(N)(=O)=O)c1)C2	> 200	> 200		
CC(=O)Nc1ccc(N)c2cc(S(=O)(=O)O)ccc12	2.7	3.4		
C=C1CC(c2ccc(S(=O)(=O)N3CCOCC3)cc2)OC1=O (stereo not given)	> 200	> 200		
COC(=O)c1noc2c1CSC1=C2CS(=O)(=O)c2ccccc21	> 200	> 200		
CC(=O)NCCSS(=O)(=O)CCCCCS(=O)(=O)SCCNC(C)=O	> 200	> 200		
CC(=O)OCC1OC(n2ccc(-n3cncn3)nc2=O)CC1N=[N+]=[N-] (stereo not given)	> 200	> 200		
NC1=NNC(=O)C1/N=N/c1ccc(S(=O)(=O)Nc2nccs2)cc1 (stereo not given)	61	71		
CCOC(=S)SC1OC(COC(C)=O)C(OC(C)=O)C(OC(C)=O)C1OC(C)=O (stereo not given)	> 200	> 200		
CCOC(=O)C(Cc1cn(S(=O)(=O)c2ccccc2)c2ccccc12)(NC(C)=O)C(=O)OCC	> 200	> 200		
CCC(=O)C(C)C(=O)C(=O)NCCNC(=O)C(=O)C(C)C(=O)CC (stereo not given)	> 200	> 200		
CC1=NN(c2ccccc2)C(=O)C1/N=N/c1ccc(S(=O)(=O)Nc2scc(C)c2C)cc1 (stereo not given)			124	97
CC(=O)C1(/N=N/c2ccc(S(=O)(=O)Nc3nccc(C)n3)cc2)CCOC1=O (stereo not given)	65	70		
CS(=O)(=O)Nc1ccc2oc(=O)c3ccccc3c2c1	> 200	> 200		
NS(=O)(=O)c1ccc(NN=C2C(=O)N(c3ccccc3)N(c3ccccc3)C2=O)cc1	> 200	> 200		
O=C1NC(=S)SC1c1ccc(S(=O)(=O)Nc2ncccn2)cc1 (stereo not given)	14	28.6		
NS(=O)(=O)c1ccc(/N=N/C2Sc3nc4ccccc4n3C2=O)cc1 (stereo not given)	126	209		
Nc1ncnc2c1ncn2[C@@H]1O[C@H](CO[C@@H]2[C@@H](O)[C@H](OS(=O)(=O)O)[C@H](O)[C@@H](O[C@H]3O[C@@H](CO)[C@@H](O)[C@H](O)[C@@H]3N)[C@]2(O)C(=O)[C@@H](N)CO)[C@@H](O)[C@H]1O	> 200	> 200		
O=C(O)[C@H]1OC(n2cc([N+](=O)[O-])c(=O)[nH]c2=O)[C@H](O)[C@@H]1O (stereo not given in full)	> 200	> 200		
